The values below come from patent publication US9714243B2, “4-pyridinonetriazine derivatives as HIV integrase inhibitors” (Merck Sharp & Dohme Corp., priority 2012, dated 2017).

The structures appear in SMILES notation. Where two headings read alike, the source gives them in different places.

The test system of this assay is HIV-1 (NL4-3 strain). Briefly: Assay for inhibition of HIV replication (ViKinG; infected MT4-GFP cells). Format: cell-based. How it is done: Assay for inhibition of HIV replication
MT4-GFP cells (250,000 cells/ml) were bulk-infected with HIV-1 (NL4-3 strain) at low multiplicity of infection (MOI) in RPMI+10% FBS for 24 hours. […] Test compounds were serial-diluted in DMSO on ECHO. The infected MT4-GFP cells were added to a 384-well poly-D-lysine coated black plate with clear bottom in which the diluted test compounds were placed. The cells were seeded at 8,000 cells per well and the final DMSO concentration was 0.4%. The infected cells (Green GFP cells) were quantified at both 24 and 48 hours post incubation using Acumen eX3. Viral reproductive ratio (R0) was determined using the number of infected cells at 48 hours divided by the number of infected cells at 24 hours. Percent viral growth inhibition was calculated by [1−(R−Rtripledrug)/(RDMSO−Rtripledrug)]*100. Compound potency IP or IC50 was determined by a 4-parameter dose response curve analysis.

[1] abbreviates: Human immunodeficiency virus 1, NL43, MT4-GFP cells infected with HIV-1 NL4-3, 0% normal human serum (NHS), read-out: ViKinG IP (nM) with 0% NHS.
Setting [2] is: Human immunodeficiency virus 1, NL43, MT4-GFP cells infected with HIV-1 NL4-3, 10% normal human serum (NHS), read-out: ViKinG IP (nM) with 10% NHS.
Setting [3] is: Human immunodeficiency virus 1, NL43, MT4-GFP cells infected with HIV-1 NL4-3, 100% normal human serum (NHS), read-out: ViKinG IP (nM) with 100% NHS.
Setting [4] is: MT4-GFP cells infected with HIV-1 NL4-3, 0% normal human serum (NHS), read-out: ViKinG IP (nM) with 0% NHS.
Where [5] appears, read: MT4-GFP cells infected with HIV-1 NL4-3, 100% normal human serum (NHS), read-out: ViKinG IP (nM) with 100% NHS.
The mark [6] stands for this setting: MT4-GFP cells infected with HIV-1 NL4-3, 10% normal human serum (NHS), read-out: ViKinG IP (nM) with 10% NHS.

Regarding `CN1C(=O)c2c(O)c(=O)c(-c3nnc(Cc4ccc(F)cc4F)s3)cn2N(C)C12CCC(O)C2` (centres unmarked) [Compound 79], the IC50 runs as follows: under setting [1], 3.11 nM; under setting [2], 40.9 nM.

Turning to `CN1C(=O)c2c(O)c(=O)c(-c3nnc(Cc4ccc(F)cc4F)s3)cn2N(C)C12CCC1C(=O)NC(=O)C1C2` (centres unmarked) [Compound 80], the IC50 is 50.1 nM under setting [1] and 915 nM under setting [3].

`CN1C(=O)c2c(O)c(=O)c(-c3nnc(Cc4ccc(F)cc4F)s3)cn2N(C)C12CCC1C(=O)NC(=O)C1C2` (centres unmarked) [Compound 81]: the IC50 under setting [4] is 37.5 nM and the IC50 under setting [5] turned out to be 1610 nM.

Take `CC(=O)NC1CCC2(CC1)N(C)C(=O)c1c(O)c(=O)c(-c3nnc(Cc4ccc(F)cc4F)s3)cn1N2C` (centres unmarked) [Compound 82]: the IC50 was 63.7 nM under setting [1] and 2560 nM under setting [3].

For the compound `CN1C(=O)c2c(O)c(=O)c(-c3nnc(Cc4ccc(F)cc4F)s3)cn2N(C)C12CCC(C)(C(=O)O)CC2` (centres unmarked) [Compound 83], the IC50 by setting is: under setting [4], 151 nM; under setting [6], 755 nM.

With `CN1C(=O)c2c(O)c(=O)c(-c3nnc(Cc4ccc(F)cc4F)s3)cn2N(C)C12CCC(C)(C(=O)O)CC2` (centres unmarked) [Compound 84], the IC50 worked out at 51.5 nM under setting [4] and 209 nM under setting [6].

For the compound `CN1C(=O)c2c(O)c(=O)c(-c3nnc(Cc4ccc(F)cc4F)s3)cn2N(C)C12CCC(C)(CO)CC2` (centres unmarked) [Compound 85], the IC50 was determined as 12.5 nM under setting [1], 150 nM under setting [3] and 29.5 nM under setting [6].

Regarding `CN1C(=O)c2c(O)c(=O)c(-c3nnc(Cc4ccc(F)cc4F)s3)cn2N(C)C12CCC(C)(CO)CC2` (centres unmarked) [Compound 86], the IC50 was 6.34 nM under setting [4], 94.3 nM under setting [6] and 185 nM under setting [5].

Take `CCN1C(=O)c2c(O)c(=O)c(-c3nnc(Cc4ccc(F)cc4)s3)cn2N(C)C12CCC(P(=O)(O)O)C2` (centres unmarked) [Compound 87]: the IC50 is, setting by setting: under setting [1], 626 nM; under setting [3], 2890 nM.

For the compound `CN1C(=O)c2c(O)c(=O)c(-c3nnc(Cc4ccc(F)cc4F)s3)cn2N(C)C12CCC(C(=O)O)CC2` (centres unmarked) [Compound 88], the IC50 reads like this: under setting [4], 1280 nM; under setting [6], 4200 nM.

As for `CN1C(=O)c2c(O)c(=O)c(-c3nnc(Cc4ccc(F)cc4F)s3)cn2N(C)C12CCC(C(=O)O)CC2` (centres unmarked) [Compound 89], the IC50 is, setting by setting: under setting [4], 44.9 nM; under setting [6], 322 nM.

On to `CCN1C(=O)c2c(O)c(=O)c(-c3nnc(Cc4ccc(F)cc4)s3)cn2N(C)C12CCC(C(=O)N(C)C)CC2` (centres unmarked) [Compound 93], for which the IC50 under setting [6] turned out to be 255 nM.

Regarding `CCN1C(=O)c2c(O)c(=O)c(-c3nnc(Cc4ccc(F)cc4)s3)cn2N(C)C12CCC(C(=O)N(C)C)CC2` (centres unmarked) [Compound 94], the IC50 under setting [3] came to 130 nM and the IC50 under setting [6] stood at 9.83 nM.

In the case of `CCN1C(=O)c2c(O)c(=O)c(-c3nnc(Cc4ccc(F)cc4)s3)cn2N(C)C12CCC(C(=O)NC1CC1)CC2` (centres unmarked) [Compound 96], the IC50 by setting is: under setting [1], 8.63 nM; under setting [2], 16.2 nM; under setting [3], 171 nM.

On to `CCN1C(=O)c2c(O)c(=O)c(-c3nnc(Cc4ccc(F)cc4)s3)cn2N(C)C12CCC(CC(=O)N(C)C)CC2` (centres unmarked) [Compound 97], for which the IC50 under setting [2] came out at 23.4 nM and the IC50 under setting [3] is 133 nM.

Regarding `CCN1C(=O)c2c(O)c(=O)c(-c3nnc(Cc4ccc(F)cc4)s3)cn2N(C)C12CCC(CC(=O)N(C)C)CC2` (centres unmarked) [Compound 98], the IC50 under setting [6] was 32.2 nM and the IC50 under setting [5] is 168 nM.

Turning to `CCN1C(=O)c2c(O)c(=O)c(-c3nnc(Cc4ccc(F)cc4)s3)cn2N(C)C12CCC(CC(=O)N(C)C)C2` (centres unmarked) [Compound 99], the IC50 under setting [2] stood at 34.9 nM and the IC50 under setting [3] was determined as 122 nM.

Regarding `CCN1C(=O)c2c(O)c(=O)c(-c3nnc(Cc4ccc(F)cc4F)s3)cn2N(C)C12CCC(C(=O)N(C)C)CC2` (centres unmarked) [Compound 100], the IC50 reads like this: under setting [1], 7.51 nM; under setting [3], 111 nM; under setting [6], 6.47 nM.

On to `CCN1C(=O)c2c(O)c(=O)c(-c3nnc(Cc4ccc(F)cc4F)s3)cn2N(C)C12CCC(C(=O)N(C)C)CC2` (centres unmarked) [Compound 101], for which the IC50 under setting [6] is 37.5 nM.

Turning to `CCN1C(=O)c2c(O)c(=O)c(-c3nnc(Cc4ccc(F)cc4F)s3)cn2N(C)C12CCC(C(=O)N(C)CC(F)(F)F)CC2` (centres unmarked) [Compound 102], the IC50 is, setting by setting: under setting [1], 12.2 nM; under setting [3], 170 nM.

On to `CCN1C(=O)c2c(O)c(=O)c(-c3nnc(Cc4ccc(F)cc4F)s3)cn2N(C)C12CCC(C(=O)N(C)CC(F)(F)F)CC2` (centres unmarked) [Compound 103], for which the IC50 runs as follows: under setting [4], 6.88 nM; under setting [5], 143 nM.

On to `CN1C(=O)c2c(O)c(=O)c(-c3nnc(Cc4ccc(F)cc4F)s3)cn2N(C)C12CCC(C(N)=O)CC2` (centres unmarked) [Compound 106], for which the IC50 under setting [4] was 186 nM and the IC50 under setting [6] was 812 nM.

With `CN1C(=O)c2c(O)c(=O)c(-c3nnc(Cc4ccc(F)cc4F)s3)cn2N(C)C12CCC(C(N)=O)CC2` (centres unmarked) [Compound 107], the IC50 is, setting by setting: under setting [4], 4.96 nM; under setting [6], 46.4 nM.

As to `CN(CC(F)(F)F)C(=O)C1CCC2(CC1)N(C)C(=O)c1c(O)c(=O)c(-c3nnc(Cc4ccc(F)cc4F)s3)cn1N2C` (centres unmarked) [Compound 108], the IC50 is, setting by setting: under setting [1], 24 nM; under setting [2], 16.1 nM; under setting [3], 478 nM.

Regarding `CN(C(=O)C1CCC2(CC1)N(C)C(=O)c1c(O)c(=O)c(-c3nnc(Cc4ccc(F)cc4F)s3)cn1N2C)C1CC1` (centres unmarked) [Compound 109], the IC50 under setting [2] worked out at 18.2 nM and the IC50 under setting [4] worked out at 12.1 nM.

`CN(C(=O)C1CCC2(CC1)N(C)C(=O)c1c(O)c(=O)c(-c3nnc(Cc4ccc(F)cc4F)s3)cn1N2C)C1CC1` (centres unmarked) [Compound 110]: the IC50 under setting [4] came out at 5.82 nM and the IC50 under setting [6] was 10.7 nM.

With `CN1C(=O)c2c(O)c(=O)c(-c3nnc(Cc4ccc(F)cc4F)s3)cn2N(C)C12CCC(C(=O)NCC(F)(F)F)CC2` (centres unmarked) [Compound 111], the IC50 under setting [4] amounted to 26.6 nM and the IC50 under setting [6] is 193 nM.

Regarding `CN1C(=O)c2c(O)c(=O)c(-c3nnc(Cc4ccc(F)cc4F)s3)cn2N(C)C12CCC(C(=O)NCC(F)(F)F)CC2` (centres unmarked) [Compound 112], the IC50 runs as follows: under setting [4], 3.36 nM; under setting [6], 11.1 nM.

For the compound `CN1C(=O)c2c(O)c(=O)c(-c3nnc(Cc4ccc(F)cc4F)s3)cn2N(C)C12CCC(C(=O)NC1(C)CC1)CC2` (centres unmarked) [Compound 113], the IC50 under setting [4] was 22.2 nM and the IC50 under setting [6] is 72.2 nM.

For the compound `CN1C(=O)c2c(O)c(=O)c(-c3nnc(Cc4ccc(F)cc4F)s3)cn2N(C)C12CCC(C(=O)NC1(C)CC1)CC2` (centres unmarked) [Compound 114], the IC50 stood at 4.69 nM under setting [4] and 9.07 nM under setting [6].

For `CN1C(=O)c2c(O)c(=O)c(-c3nnc(Cc4ccc(F)cc4F)s3)cn2N(C)C12CCC(C(=O)N1CCCC1)CC2` (centres unmarked) [Compound 115], the IC50 by setting is: under setting [4], 16.4 nM; under setting [6], 39.5 nM.

Turning to `CN1C(=O)c2c(O)c(=O)c(-c3nnc(Cc4ccc(F)cc4F)s3)cn2N(C)C12CCC(C(=O)N1CCCC1)CC2` (centres unmarked) [Compound 116], the IC50 reads like this: under setting [4], 3.94 nM; under setting [6], 15.2 nM.

For `CN1C(=O)c2c(O)c(=O)c(-c3nnc(Cc4ccc(F)cc4F)s3)cn2N(C)C12CCC(C(=O)N1CCC(F)(F)C1)CC2` (centres unmarked) [Compound 117], the IC50 is, setting by setting: under setting [1], 20.4 nM; under setting [6], 42.7 nM.

In the case of `CN1C(=O)c2c(O)c(=O)c(-c3nnc(Cc4ccc(F)cc4F)s3)cn2N(C)C12CCC(C(=O)N1CCC(F)(F)C1)CC2` (centres unmarked) [Compound 118], the IC50 is, setting by setting: under setting [4], 14.4 nM; under setting [6], 8.43 nM.

In the case of `CN1C(=O)c2c(O)c(=O)c(-c3nnc(Cc4ccc(F)cc4F)s3)cn2N(C)C12CCC(C(=O)N1CC(F)(F)C1)CC2` (centres unmarked) [Compound 119], the IC50 under setting [1] was 5.26 nM, the IC50 under setting [6] came to 35.6 nM and the IC50 under setting [5] came out at 189 nM.

On to `CN1C(=O)c2c(O)c(=O)c(-c3nnc(Cc4ccc(F)cc4F)s3)cn2N(C)C12CCC(C(=O)N1CC(F)(F)C1)CC2` (centres unmarked) [Compound 120], for which the IC50 was found to be 5.51 nM under setting [4], 11.7 nM under setting [6] and 516 nM under setting [5].

For `COCCNC(=O)C1CCC2(CC1)N(C)C(=O)c1c(O)c(=O)c(-c3nnc(Cc4ccc(F)cc4F)s3)cn1N2C` (centres unmarked) [Compound 121], the IC50 runs as follows: under setting [4], 102 nM; under setting [6], 240 nM.

As to `COCCNC(=O)C1CCC2(CC1)N(C)C(=O)c1c(O)c(=O)c(-c3nnc(Cc4ccc(F)cc4F)s3)cn1N2C` (centres unmarked) [Compound 122], the IC50 is, setting by setting: under setting [4], 5.51 nM; under setting [6], 18.4 nM.

Regarding `CN1C(=O)c2c(O)c(=O)c(-c3nnc(Cc4ccc(F)cc4F)s3)cn2N(C)C12CCC(C(=O)NCC1(O)CC1)CC2` (centres unmarked) [Compound 123], the IC50 is 47.1 nM under setting [4] and 103 nM under setting [6].

Consider `CN1C(=O)c2c(O)c(=O)c(-c3nnc(Cc4ccc(F)cc4F)s3)cn2N(C)C12CCC(C(=O)NCC1(O)CC1)CC2` (centres unmarked) [Compound 124], for which the IC50 under setting [4] is 11.3 nM and the IC50 under setting [6] worked out at 22.6 nM.

Consider `CN(C)CCNC(=O)C1CCC2(CC1)N(C)C(=O)c1c(O)c(=O)c(-c3nnc(Cc4ccc(F)cc4F)s3)cn1N2C` (centres unmarked) [Compound 125], for which the IC50 under setting [4] amounted to 374 nM and the IC50 under setting [6] turned out to be 543 nM.

Consider `CN(C)CCNC(=O)C1CCC2(CC1)N(C)C(=O)c1c(O)c(=O)c(-c3nnc(Cc4ccc(F)cc4F)s3)cn1N2C` (centres unmarked) [Compound 126], for which the IC50 is, setting by setting: under setting [4], 24.3 nM; under setting [6], 82.2 nM.
